This experiment concerns HDAC (HeLa cell nuclear extract, a mosaic of HDAC enzymes). Description: In vitro fluorescent histone deacetylase assay (Biomol HDAC fluorescent activity kit). It counts as biochemical. Particulars: compound concentration 100 μM; HeLa cell nuclear extract as HDAC source; substrate 50 μM, 10 min, room temperature. On the procedure: Histone deacetylase (HDAC) activity assays were performed using the HDAC fluorescent activity assay/drug discovery kit (Biomol Research Laboratories, Plymouth Meeting, Pa.) essentially according to the manufacturer's instructions. The included HeLa cell nuclear extract, which contains a mosaic of HDAC enzymes and other nuclear factors, was used as the source of HDAC activity. The final substrate concentration in the assay mixture was 50 μM. The reaction was allowed to proceed for 10 min at room temperature before stopping the reaction. Test compounds were prepared as 20 mM stock solutions in DMSO (Molecular Biology grade, Sigma-Aldrich Co., St. Louis, Mo.) and stored at −70° C. Serial dilutions of test compounds were prepared in assay buffer immediately prior to testing. DMSO was determined in a separate trial to have no significant effect on the activity of this assay at concentrations up to 5%; the final DMSO concentration in the wells was no more than 2% and therefore DMSO effects were safely neglected. Assays were performed in white polystyrene 96-well half-area assay plates (Corning, Corning, N.Y.) and measured on a Wallace 1420 fluorescent plate reader (Wallac Oy, Turku, Finland) with an excitation wavelength of 355 nm, an emission wavelength of 460 nm, and a 1 sec signal averaging time.

Each structure is given as a SMILES string.

As to `CC(C)N(C)Cc1cccc(-c2ccc(S(=O)(=O)N3CCN(c4ncc(C(=O)NO)s4)CC3)cc2)c1` [Example 287, 2-{4-[(3′-[isopropyl(methyl)amino]methyl]-1,1′-biphenylsulfonyl]-piperazin-1-yl}-1,3-thiazole-5-carboxylic acid hydroxyamide], the “% inhibition HDAC @ 100 μM” value turned out to be 99%.
Regarding `O=C(NO)c1cnc(N2CCN(S(=O)(=O)c3ccc(-c4ccc(CN5CCCC5)s4)cc3)CC2)s1` [Example 288], the “% inhibition HDAC @ 100 μM” value came to 99%.
As for `O=C(NO)c1cnc(N2CCN(S(=O)(=O)c3ccc(-c4sccc4CN4CCCC4)cc3)CC2)s1` [Example 289], the figure is 99%.
Take `O=C(NO)c1cnc(N2CCN(S(=O)(=O)c3ccc(-c4cncnc4)cc3)CC2)s1` [Example 291, 2-[4-{(4-pyrimidine)benzenesulfonyl}-piperazin-1-yl]-thiazole-5-carboxylic acid hydroxyamide]: the “% inhibition HDAC @ 100 μM” value stood at 99%.
As for `CC(=O)Nc1ccc(-c2ccc(S(=O)(=O)N3CCN(c4ncc(C(=O)NO)s4)CC3)cc2)cc1` [Example 292], the figure is 100%; as for `O=C(NO)c1cnc(N2CCN(S(=O)(=O)c3ccc(-c4cccnc4)cc3)CC2)s1` [Example 293, 2-[4-{(3-pyrido)benzenesulfonyl}-piperazin-1-yl]-thiazole-5-carboxylic acid hydroxyamide], 100%.
As for `O=C(NO)c1cnc(N2CCN(S(=O)(=O)CCc3ccccc3)CC2)s1` [Example 294, 2-[4-(phenethylsulfonyl)piperazin-1-yl]-thiazole-5-carboxylic acid hydroxyamide], the figure is 98%; as for `CN(C)Cc1ccc(S(=O)(=O)N2CCN(c3ncc(C(=O)NO)s3)CC2)cc1` [Example 295], 98%; as for `CN(C)Cc1cccc(S(=O)(=O)N2CCN(c3ncc(C(=O)NO)s3)CC2)c1` [Example 297], 99%.
Under `O=C(NO)c1cnc(N2CCN(S(=O)(=O)c3cccc(CN4CCCC4)c3)CC2)s1` [Example 298] stands 98%; under `O=C(NO)c1cnc(N2CCN(S(=O)(=O)c3ccc(CN4CCCC4)cc3)CC2)s1` [Example 305], 99%.
For `O=C(NO)c1cnc(N2CCN(S(=O)(=O)c3ccc(CN4CCOCC4)cc3)CC2)s1` [Example 306], the “% inhibition HDAC @ 100 μM” value came to 99%.

Source of the values: US20050250784A1 (Miikana Therapeutics Corporation, priority 2004, published 2005).
